Measured values from patent publication US20060063782A1, “3-Hetero arylmethoxy ! pyridines and their analogues as p38 map kinase inhibitors” (priority 2002, published 2006).

These compounds were tested against p38 MAP kinase (Homo sapiens, UniProt Q16539) (assay: p38 MAP Kinase Assay (33P incorporation into myelin basic protein, filter plate)). Conditions: Table 1; MKK6-activated p38, MBP substrate, 50 minutes.
Type: biochemical

Sequence of p38 MAP kinase (Q16539 whole entry): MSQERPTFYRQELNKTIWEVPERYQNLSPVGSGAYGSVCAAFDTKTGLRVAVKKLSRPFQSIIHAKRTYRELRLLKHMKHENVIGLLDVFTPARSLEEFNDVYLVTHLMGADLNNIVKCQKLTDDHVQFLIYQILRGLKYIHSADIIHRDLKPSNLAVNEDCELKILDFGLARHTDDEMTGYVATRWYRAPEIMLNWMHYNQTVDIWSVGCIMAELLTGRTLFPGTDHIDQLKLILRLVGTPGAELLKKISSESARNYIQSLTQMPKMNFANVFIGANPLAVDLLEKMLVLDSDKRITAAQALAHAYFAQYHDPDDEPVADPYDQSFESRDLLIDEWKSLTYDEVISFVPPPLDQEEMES

| IC50 [µM] | SMILES |
| --- | --- |
| < 2 | O=C(Nc1ccc(Cl)c(COc2ccc(NCCO)nc2)c1)c1cc(F)cc(N2CCOCC2)c1 [Compound 76, N-{4-Chloro-3-[6-(2-hydroxy-ethylamino)-pyridin-3-yloxymethyl]-phenyl}-3-fluoro-5-morpholin-4-yl-benzamide] |

Same assay, conditions: Table 2; MKK6-activated p38, MBP substrate, 50 minutes

| SMILES | IC50 [µM] |
| --- | --- |
| O=C(Nc1ccc(Cl)c(COc2cnccn2)c1)c1cc(F)cc(N2CCOCC2)c1 [Compound 94, N-[4-Chloro-3-(pyrazin-2-yloxymethyl)-phenyl]-3-fluoro-5-morpholin-4-yl-benzamide] | < 2 |
| CC(C)(C)c1ccc(-n2nc(C3CC3)cc2NC(=O)Nc2ccc(F)c(COc3cnccn3)c2)cc1 [Compound 164, 1-[2-(4-tert-Butyl-phenyl)-5-cyclopropyl-2H-pyrazol-3-yl]-3-[4-fluoro-3-(pyrazin-2-yloxymethyl)-phenyl]-urea] | < 200 |
| O=C(Nc1ccc(F)c(COc2cnccn2)c1)Nc1cc(C2CCOCC2)nn1-c1ccc(F)cc1 [Compound 165, 1-[2-(4-Fluoro-phenyl)-5-(tetrahydro-pyran-4-yl)-2H-pyrazol-3-yl]-3-[4-fluoro-3-(pyrazin-2-yloxymethyl)-phenyl]-urea] | < 2 |
| Clc1cccc(Cl)c1COc1cnc(NC2CCOCC2)cn1 [Compound 166] | < 200 |
| CN1CCC(CC(=O)Nc2cnc(OCc3c(Cl)cccc3Cl)cn2)CC1 [Compound 169] | < 200 |
| CN1CCN(CC(=O)Nc2cnc(OCc3c(Cl)cccc3Cl)cn2)CC1 [Compound 170] | < 20 |
| O=C(CN1CCOCC1)Nc1cnc(OCc2c(Cl)cccc2Cl)cn1 [Compound 171] | < 200 |
| O=C(CN1CCCCC1)Nc1cnc(OCc2c(Cl)cccc2Cl)cn1 [Compound 172] | < 200 |
| O=C(CC1CCOCC1)Nc1cnc(OCc2c(Cl)cccc2Cl)cn1 [Compound 173] | < 200 |
| O=C(Cn1ccnc1)Nc1cnc(OCc2c(Cl)cccc2Cl)cn1 [Compound 174] | < 20 |

Continued, values first:

| IC50 [µM] | SMILES |
| --- | --- |
| < 200 | CC(C)(C)C(=O)Nc1cnc(OCc2c(Cl)cccc2Cl)cn1 [Compound 167] |
| < 200 | CC1(C(=O)Nc2cnc(OCc3c(Cl)cccc3Cl)cn2)CC1 [Compound 168] |
| < 2 | O=C(Nc1cnc(OCc2c(Cl)cccc2Cl)cn1)N1CCOCC1 [Compound 175] |
| < 2 | CC(C)(CO)NC(=O)Nc1cnc(OCc2c(Cl)cccc2Cl)cn1 [Compound 176] |
| < 200 | CC(C)(CO)C(=O)Nc1cnc(OCc2c(Cl)cccc2Cl)cn1 [Compound 177] |

What follows are compounds tested on LPS-induced TNF-α production in THP-1 cells (assay: Inhibition of LPS-Induced TNF-α Production in THP-1 Cells (ELISA)). Conditions: Homo sapiens; PMA-treated THP-1 cells, 1 μg/ml LPS, 6 hours, TNF-α by ELISA; read-out: IC50 (inhibition of TNF-α release).
Type: cell-based
Protocol: THP-1 cells were suspended in culture medium containing 50 ng/ml PMA (SIGMA), seeded into a 96-well tissue culture plate (IWAKI) at 1×10^5 cells/well (100 μl/well) and incubated as described above for approximately 48 hours. The medium was then aspirated, the wells washed twice in Phosphate Buffered Saline and 1 μg/ml LPS (SIGMA) in culture medium was added (200 μl/well).
Test compounds were reconstituted in DMSO (SIGMA) and then diluted with the culture medium such that the final DMSO concentration was 0.1%. Twenty microlitre aliquots of test solution or medium only with DMSO (solvent control) were added to triplicate wells immediately following LPS addition, and incubated for 6 hours as described above. Culture supernatants were collected and the amount of human TNF-α present was determined by ELISA (R&D Systems) performed according to the manufacturer's instructions.
The IC50 was defined as the concentration of the test compound corresponding to half maximal inhibition of the control activity by non-linear regression analysis of their inhibition curves.

| IC50 [µM] | SMILES |
| --- | --- |
| 0.97 | O=C(Nc1ccc(Cl)c(COc2ccc(NCCO)nc2)c1)c1cc(F)cc(N2CCOCC2)c1 [Compound 76, N-{4-Chloro-3-[6-(2-hydroxy-ethylamino)-pyridin-3-yloxymethyl]-phenyl}-3-fluoro-5-morpholin-4-yl-benzamide] |
| 0.21 | O=C(Nc1ccc(Cl)c(COc2cnccn2)c1)c1cc(F)cc(N2CCOCC2)c1 [Compound 94, N-[4-Chloro-3-(pyrazin-2-yloxymethyl)-phenyl]-3-fluoro-5-morpholin-4-yl-benzamide] |
